Source: patent publication US20050038058A1, “Novel compounds and methods for therapy” (Institute of Organic Chemistry and Biochemistry, priority 2001, published 2005)
In brackets after ≈: the same amount, converted by molar mass.

Key:
VZV TK − 07/1 = test: Antiviral activity, VZV TK- 07/1, Table 1a; type: cell-based; conditions: Human alphaherpesvirus 3, read-out: Antiviral Activity EC50 VZV TK − 07/1
VZV TK − YS/R = test: Antiviral activity, VZV TK- YS/R, Table 1a; type: cell-based; conditions: Human alphaherpesvirus 3, read-out: Antiviral Activity EC50 VZV TK − YS/R
HIV-2 = test: Antiviral activity, HIV-2, Table 1a; type: cell-based; conditions: Human immunodeficiency virus 2
HSV-2 (G) = test: Antiviral activity, HSV-2 (G), Table 1a; type: cell-based; conditions: Human alphaherpesvirus 2
HSV-1 TK- VMW 1837 = test: Antiviral activity, HSV-1 TK- VMW 1837, Table 1a; type: cell-based; conditions: Human alphaherpesvirus 1, read-out: Antiviral Activity EC50 HSV-1 TK- VMW 1837
VZV TK + OKA = test: Antiviral activity, VZV TK+ OKA, Table 1a; type: cell-based; conditions: Human alphaherpesvirus 3, read-out: Antiviral Activity EC50 VZV TK + OKA
HIV-1 = test: microbe, parasite or virus in culture; conditions: Human immunodeficiency virus 1, read-out: Antiviral Activity EC50 HIV-1
VZV TK + YS = test: Antiviral activity, VZV TK+ YS, Table 1a; type: cell-based; conditions: Human alphaherpesvirus 3
MSV = test: Antiviral activity, MSV, Table 1a; type: cell-based
HSV-1 (KOS) = test: Antiviral activity, HSV-1 (KOS), Table 1a; type: cell-based; conditions: Human alphaherpesvirus 1
CMV AD-169 = test: Antiviral activity, CMV AD-169, Table 1a; type: cell-based; conditions: Human betaherpesvirus 5, AD169
CMV Davis = test: Antiviral activity, CMV Davis, Table 1a; type: cell-based; conditions: Human betaherpesvirus 5
[1] = Inhibition of CEM cell growth (cytostatic activity); type: cell-based; conditions: human, CEM cells, 50% cytostatic concentration, CEM cell proliferation; Table 1; read-out: CC50 (CEM)
Protocol: (§1) Cytostatic and antimetabolic effect of acyclic nucleoside phosphonates in vitro. The assays to examine the inhibition of CEM cell growth by the test compounds have been described previously (Balzarini et al., AIDS 5:21-28, 1991). The 50% cytostatic concentration (CC50) was defined as the concentration of compound that reduced the number of living cells by 50% . To measure MT-4 cell toxicity of the test compounds, 5×10^4 MT-4 cells were incubated in the wells of 96-well microplates in the presence or absence of different concentrations of the test compounds for 5 days at 37° C. The CC50 was then calculated from the number of living cells counted under a microscope by the trypan blue exclusion method.

HIV-1(IIIB) = test: HIV-1(IIIB)-induced cytopathicity in CEM cell cultures; type: cell-based; conditions: for EC50: Human immunodeficiency virus 1, CCRF-CEM, read-out: EC50 HIV-1 (CEM)
Text: Viruses. The origins of MSV, HIV type 1 (HIV-1) (strain IIIB and Ba-L), HIV-2 (strain ROD) and FIV (strain Petaluma) have been described previously (Balzarini et al., AIDS 5: 21-28, 1991; De Clercq et al., Proc. Soc. Exp. Biol. Med. 137:590-594, 1971; Egberink et al., Proc. Natl. Acad. Sci. 87:3087-3091, 1990; Hartmann et al., Antiviral Chem. Chemother. 5:13-19, 1994; Popovic et al., Science 224:497-500, 1984). HIV-1(IIIB) and HIV-2(ROD) stocks were obtained from supernatants of virus-infected MT-4 cell cultures. HIV-1BaL was expanded in human primary M/M, whose supernatants were collected, filtered and stored at −80° C. before use. Characteristics of viral stocks used for this study were 2.1×10^8 HIV-RNA genomes/ml (corresponding to 35 ng of p24 antigen) and 5,000 tissue culture infectious doses 50% per ml (TCID50/ml) as assessed by virus titration in other primary M/M cultures. The isolation and characterization of the clinical HIV-1 isolates L1S, L6S and L6S/PMEA has been reported (Thormar et al., Proc. Natl. Acad. Sci. USA 93:3283-3287, 1995; Van Laethem et al., AIDS 15:553-561, 2001). […] HIV-1/L6S/PMEA is the clinical isolate HIV-1/L6S that has been isolated after culturing the virus for 11 passages in the presence of increasing concentrations of PMEA (adefovir).
In vitro antiviral assays. The activity against HIV-1- and HIV-2-induced cytopathicity was examined in MT-4 cell cultures at day 5 post infection and based on the determination of cell viability by trypan blue dye staining or in CEM cell cultures at day 4 to 5 post infection and based on the microscopical examination of virus-induced giant cell formation. HIV-1 and HIV-2 were added at 100 CCID50 to the cell cultures.

CEM cells = test: Inhibition of CEM cell growth (cytostatic activity); type: cell-based; conditions: 50% cytostatic concentration, CEM cell proliferation; Table 1
Protocol: as §1

[2] = HIV-1(IIIB)-induced cytopathicity in CEM cell cultures, Table 1

Row | Compound | EC50 (VZV TK − 07/1) | EC50 (VZV TK − YS/R) | EC50 (HIV-2) | EC50 (HSV-2 (G)) | EC50 (HSV-1 TK- VMW 1837) | EC50 (VZV TK + OKA) | EC50 (HIV-1) | EC50 (VZV TK + YS) | EC50 (MSV) | EC50 (HSV-1 (KOS)) | EC50 (CMV AD-169) | EC50 (CMV Davis) | CC50 [1] | Antiretroviral (anti-HIV-1) activity in CEM cell cultures, in words (HIV-1(IIIB)) | EC50 (HIV-1(IIIB); [2]) | other results
1 | CN(C)c1cc(OCCOCP(=O)(O)O)nc(N)n1 [Compound H-3427] | > 50 µg/mL | > 50 µg/mL | > 100 µg/mL | > 400 µg/mL | > 400 µg/mL | > 50 µg/mL | > 100 µg/mL | > 50 µg/mL | 139 ± 11 µg/mL (≈ 476 µM) | > 400 µg/mL | > 50 µg/mL | > 50 µg/mL | – | – | – | –
2 | Cc1cc(OCCOCP(=O)(O)O)nc(N)n1 [Compound 9, 2-amino-4-methyl-6-[2-(phosphonomethoxy)ethoxy]pyrimidine] | – | – | – | – | – | – | – | – | – | – | – | – | > 100 µg/mL | complete annihilation of the antiretroviral activity | > 100 µg/mL | –
3 | Nc1nc(OCCOCP(=O)(O)O)cc(=O)n1CCOCP(=O)(O)O [Compound H-3445] | > 50 µg/mL | > 50 µg/mL | > 100 µg/mL | > 400 µg/mL | > 400 µg/mL | > 50 µg/mL | > 100 µg/mL | > 50 µg/mL | 107 ± 10 µg/mL (≈ 265 µM) | > 400 µg/mL | > 50 µg/mL | > 50 µg/mL | – | – | – | –
4 | Nc1cc(OCCOCP(=O)(O)O)ncn1 [Compound H-3418] | > 50 µg/mL | > 50 µg/mL | > 100 µg/mL | > 16 µg/mL | > 16 µg/mL | > 50 µg/mL | > 100 µg/mL | > 50 µg/mL | 12.6 ± 7.6 µg/mL (≈ 50.6 µM) | > 16 µg/mL | > 50 µg/mL | > 50 µg/mL | – | – | – | –
5 | Nc1cc(SCCOCP(=O)(O)O)nc(N)n1 [Compound H-3408] | 20 µg/mL (≈ 71.4 µM) | 15 µg/mL (≈ 53.5 µM) | 3 ± 1.4 µg/mL (≈ 10.7 µM) | ≥ 80 µg/mL | 48 µg/mL (≈ 171 µM) | 7.5 µg/mL | 5.5 ± 2.1 µg/mL (≈ 19.6 µM) | 7 µg/mL | 1.7 µg/mL (≈ 6.07 µM) | 29 µg/mL (≈ 103 µM) | > 50 µg/mL | > 50 µg/mL | – | – | – | –
6 | Nc1nc(NC2CC2)cc(OCCOCP(=O)(O)O)n1 [Compound H-3435] | > 50 µg/mL | > 50 µg/mL | > 100 µg/mL | > 80 µg/mL | – | > 20 µg/mL | > 100 µg/mL | > 50 µg/mL | > 40 µg/mL | 240 µg/mL (≈ 789 µM) | > 50 µg/mL | > 50 µg/mL | – | – | – | –
7 | Nc1nc(O)cc(SCCOCP(=O)(O)O)n1 [Compound 5, 2-amino-4-hydroxy-6-{[2-(phosphono-methoxy)ethyl]sulfanyl}pyrimidine] | – | – | – | – | – | – | – | – | – | – | – | – | > 100 µg/mL | completely inactive | > 100 µg/mL | –
8 | Nc1nc(O)cc(OCCOCP(=O)(O)O)n1 [Compound H-3574] | – | 0.6 µg/mL (≈ 2.26 µM) | – | 9.6 µg/mL (≈ 36.2 µM) | – | 1.1 µg/mL | > 0.8 µg/mL | 0.9 µg/mL | 0.08 µg/mL (≈ 0.302 µM) | 9.6 µg/mL (≈ 36.2 µM) | 14 µg/mL (≈ 52.8 µM) | 16 µg/mL (≈ 60.3 µM) | – | – | – | –
9 | Nc1nc(OCCOCP(=O)(O)O)cc(OCCOCP(=O)(O)O)n1 [Compound H-3444] | > 50 µg/mL | > 50 µg/mL | 80 ± 34.6 µg/mL (≈ 198 µM) | > 400 µg/mL | – | > 50 µg/mL | 56.7 ± 37.9 µg/mL (≈ 141 µM) | > 50 µg/mL | 4.26 ± 0.75 µg/mL (≈ 10.6 µM) | 240 µg/mL (≈ 595 µM) | > 50 µg/mL | > 50 µg/mL | – | – | – | –
10 | CSc1nc(N)cc(OCCOCP(=O)(O)O)n1 [Compound 8, 4-amino-2-methylsulfanyl-6-[2-(phosphonomethoxy)ethoxy]pyrimidine] | – | – | – | – | – | – | – | – | – | – | – | – | > 100 µg/mL | complete annihilation of the antiretroviral activity | > 100 µg/mL | –
11 | Cc1cc(OCCOCP(=O)(O)O)nc(N)n1 [Compound H-3453] | > 50 µg/mL | > 50 µg/mL | > 100 µg/mL | > 400 µg/mL | > 400 µg/mL | > 50 µg/mL | > 100 µg/mL | > 50 µg/mL | 89.4 ± 37.6 µg/mL (≈ 340 µM) | > 400 µg/mL | > 50 µg/mL | > 50 µg/mL | – | – | – | –
12 | Nc1cc(OCCOCP(=O)(O)O)ncn1 [Compound 3, 4-amino-6-[2-(phosphonomethoxy)ethoxy]pyrimidine] | – | – | – | – | – | – | – | – | – | – | – | – | > 100 µg/mL | complete annihilation of the antiretroviral activity | > 100 µg/mL | –
13 | Nc1nc(NC2CC2)cc(OCCOCP(=O)(O)O)n1 [Compound 7, 2-amino-4-cyclopropylamino-6-[2-(phosphonomethoxy)ethoxy]pyrimi-dine] | – | – | – | – | – | – | – | – | – | – | – | – | – | complete annihilation of the antiretroviral activity | – | CC50 (CEM) (CEM cells): >100 µg/mL; EC50 HIV-1 (CEM) (HIV-1(IIIB); [2]): >100 µg/mL
14 | CN(C)c1cc(OCCOCP(=O)(O)O)nc(N)n1 [Compound 6, 2-amino-4-dimethylamino-6-[2-(phosphonomethoxy)-ethoxy]pyrimidine] | – | – | – | – | – | – | – | – | – | – | – | – | > 100 µg/mL | complete annihilation of the antiretroviral activity | > 100 µg/mL | –
15 | Nc1cc(OCCOCP(=O)(O)O)nc(N)n1 [Compound H-3404] | 2.5 µg/mL (≈ 9.46 µM) | 1.6 µg/mL (≈ 6.06 µM) | 0.43 ± 0.32 µg/mL (≈ 1.63 µM) | 24 µg/mL (≈ 90.8 µM) | 9.6 µg/mL (≈ 36.3 µM) | 1.2 µg/mL | 0.8 µg/mL (≈ 3.03 µM) | 1.1 µg/mL | 0.035 ± 0.002 µg/mL (≈ 0.132 µM) | 6.5 µg/mL (≈ 24.6 µM) | > 50 µg/mL | > 50 µg/mL | – | – | – | –
16 | Nc1nc2c(ncn2CCOCP(=O)(O)O)c(=O)[nH]1 [PMEG, reference compound] | – | – | – | – | – | – | – | – | – | – | – | – | – | – | – | EC50 as such (HIV-1(IIIB); HIV-1 (IIIB) in CEM, no addition, Table 3): >0.05 µg/mL; EC50 upon addition of Ade (100 μM) (HIV-1(IIIB); HIV-1 (IIIB) in CEM, Ade 100 μM): >0.05 µg/mL; EC50 upon addition of Ado (400 μM) (HIV-1(IIIB); HIV-1 (IIIB) in CEM, Ado 400 μM): >0.05 µg/mL; EC50 upon addition of Guo (10 μM) (HIV-1(IIIB); HIV-1 (IIIB) in CEM, Guo 10 μM): >0.05 µg/mL; EC50 upon addition of dCyd (1 mM) (HIV-1(IIIB); HIV-1 (IIIB) in CEM, dCyd 1 mM): >0.25 µg/mL; EC50 upon addition of dThd (10 μM) (HIV-1(IIIB); HIV-1 (IIIB) in CEM, dThd 10 μM): >0.25 µg/mL
